The term IC50 denotes the midpoint of a concentration-inhibition curve.

The text below walks through data of PMC11859031, “Assessment of the In Vitro Biological Activities of Schiff Base-Synthesized Copper Oxide Nanoparticles as an Anti-Diabetic, Anti-Alzheimer, and Anti-Cancer Agent” (Pharmaceutics, 2025).

Structures are written as SMILES.

For assay [1], the system named is caspase-3 in Caco-2 cells. Description: Caspase-3 ELISA in treated Caco-2 cells. In kind it is cell-based, human. The note with it: Caco-2 cells treated at the IC50 value, mean ± SE, n = 3. As for the experimental part:
(§1) Following the treatment of HepG-2, Caco-2, A549, and BJ-1 cells with the SB-CuO-NPs at their respective IC50 values, as illustrated in Figure 9 and detailed in Table 5, an assessment of the activities of the caspase-3 and Bcl-2 enzymes was conducted in the treated cells. […] This mechanism ultimately triggers apoptosis. Additionally, the increased activity of caspase-3 results in a decrease in the expression of cyclin D1 and CDK-2 mRNA, thereby promoting the arrest of the G1 phase of the cell cycle. Othman et al. further noted that the biosynthesized M-NPs facilitate apoptosis by inhibiting the expression of the PI3K/AKT and Ras/Raf/ERK protein signaling pathways.
(§2) Invitrogen Corporation, following the manufacturer's instructions.
Background: An ELISA detects its analyte on a solid surface through an enzyme-linked reagent.

The test system of the next assay is caspase-3 in A549 cells. Description: Caspase-3 ELISA in treated A549 cells. The note with it: A549 cells treated at the IC50 value, mean ± SE, n = 3. In kind it is cell-based, human. How it is done: as §1, §2
Assay [2] concerns the target acetylcholinesterase (AChE) (Homo sapiens, UniProt P22303). Description: biochemical. The conditions noted are these: mean ± SE, n = 3. As for the experimental part:
The absorbance was measured at 540 nm using a UV-Visible spectrophotometer. The IC50 of each tested sample was calculated by plotting a curve using a series of sample concentrations against the percent of α-amylase inhibition.
The inhibition percentage (%) of the α-glucosidase enzyme was determined using the […]
standard drug. Five μL of the α-glucosidase solution (10 units mL−1, 0.1moll−1 potassium phosphate buffer, pH 6.8) was pre -mixed with 10 μL of the sample solution at different concentrations (in 10% DMSO) i n 620 μL of 0.1 moll−1 potassium […]
phosphate buffer (pH 6.8). […]
phenyl glucopyranoside (pNPG, 10 mmoll−1) as a substrate was added to the mixture […]
minutes, followed by the addition of 650 μL of 1 moll−1 Na2CO3 solution to terminate the reaction. The amount of released product (p-nitro phenol) was measured at 410 […]
activity. The inhibition assay was performed in triplicate for all tests. The IC50 of each tested sample was calculated by plotting a curve using a series of sample concentrations against the percent of α-glucosidase inhibition.
3.4. Anti-Alzheimer's activity
In this study, we assessed the inhibition percentage of the acetylcholinesterase (AChE) enzyme using Ellman's method with donepezil as the standard drug. […] After incubation, 5 µL of AChE at a concentration of 0.3 U/mL was added to start the reaction, and the absorbance […]

Another assay has as its system Bcl-2 in A549 cells. Put plainly: Bcl-2 ELISA in treated A549 cells. In kind it is cell-based, human. The note with it: A549 cells treated at the IC50 value, mean ± SE, n = 3. How it is done: as §1, §2
The next assay can be described thus: DPPH radical scavenging. The conditions noted are these: mean ± SE, n = 3. How it is done: The 1,1-Diphenyl-2-picryl-hydrazyl (DPPH) radical scavenging activities were evaluated using the method described by Rahman et al. An antioxidant substance capable of donating a hydrogen atom to a solution containing DPPH- can reduce the stable free radical, causing the solution to change color from violet to pale yellow.
The remaining DPPH- radical was quantified by measuring the intensity of a light-purple colored DPPH methanol solution in the visible range at 518 nm using a spectroscopic method. Two mill iliters of a DPPH solution (100 µ M) in ethanol were mixed with 2 mL of the sample (at each concentration). The reaction mixture for each concentration was thoroughly vortexed and then incubated in the dark at room temperature for 30 minutes. The absorbance was then measured spectrophotometrically at 518 nm against a blank (ethanol). For the control, 2 mL of ethanol was added instead of the sample and run simultaneously with the test.
Ascorbic acid was used at the same concentrations as a positive control. P ercent […]
inhibition of the DPPH free radical was calculated. […]
(In general: Loss of DPPH colour is used to gauge radical scavenging.)

In another assay the target is T1, COX-1 (Ovis aries, UniProt P05979).
T1 construct: purchased Cayman 560131
T1 sequence (P05979 25-600): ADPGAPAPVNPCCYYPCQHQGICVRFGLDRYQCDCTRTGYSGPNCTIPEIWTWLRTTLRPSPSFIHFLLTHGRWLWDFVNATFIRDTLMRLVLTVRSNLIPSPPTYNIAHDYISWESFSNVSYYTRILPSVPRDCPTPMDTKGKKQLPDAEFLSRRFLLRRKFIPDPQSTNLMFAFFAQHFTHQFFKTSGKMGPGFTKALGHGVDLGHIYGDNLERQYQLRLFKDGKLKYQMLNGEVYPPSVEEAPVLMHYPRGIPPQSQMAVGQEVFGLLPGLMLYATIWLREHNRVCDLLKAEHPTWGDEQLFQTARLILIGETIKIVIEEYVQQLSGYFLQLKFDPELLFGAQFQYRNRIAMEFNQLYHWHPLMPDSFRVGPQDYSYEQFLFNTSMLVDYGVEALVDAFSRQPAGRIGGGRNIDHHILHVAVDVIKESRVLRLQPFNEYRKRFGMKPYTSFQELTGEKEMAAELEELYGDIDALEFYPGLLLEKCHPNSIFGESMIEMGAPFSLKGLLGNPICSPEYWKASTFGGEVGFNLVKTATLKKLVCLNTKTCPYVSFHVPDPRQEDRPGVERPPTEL
Description: COX-1 inhibition assay (Cayman kit). The assay is classed as biochemical, ovine. The note with it: mean ± SE, n = 3.

The next assay deals with Bcl-2 in BJ-1 cells. Put plainly: Bcl-2 ELISA in treated BJ-1 cells. The conditions noted are these: BJ-1 cells treated at the IC50 value, mean ± SE, n = 3. The assay is classed as cell-based, human. As for the experimental part: as §1, §2
A further assay is described as follows: NO radical scavenging. The conditions noted are these: mean ± SE, n = 3. As for the experimental part: The in vitro biological applications of the SB and SB-CuO-NPs, including antioxidant, scavenging, anti-diabetic, anti-Alzheimer, anti-arthritic, anti-inflammatory, cytotoxic effects, and enzyme inhibition, were assessed using methods described in the literature (See Supplementary Materials).
During the current study, the free radical scavenging capacity of SB-CuO-NPs, SB, and ascorbic acid (positive control) was evaluated using the DPPH, ABTS, and NO radical methods. The scavenging activity is used to predict antioxidant efficacy, a mechanism in which antioxidants inhibit lipid oxidation. The lower IC50 value indicates a stronger ability of the SB-CuO-NPs to act as radical scavengers, whereas the higher IC50 value indicates a lower scavenging activity. […] The lower the IC50 value, the greater the antioxidant activity.

Chain of acetylcholinesterase (AChE) (P22303 32-614, species assumed): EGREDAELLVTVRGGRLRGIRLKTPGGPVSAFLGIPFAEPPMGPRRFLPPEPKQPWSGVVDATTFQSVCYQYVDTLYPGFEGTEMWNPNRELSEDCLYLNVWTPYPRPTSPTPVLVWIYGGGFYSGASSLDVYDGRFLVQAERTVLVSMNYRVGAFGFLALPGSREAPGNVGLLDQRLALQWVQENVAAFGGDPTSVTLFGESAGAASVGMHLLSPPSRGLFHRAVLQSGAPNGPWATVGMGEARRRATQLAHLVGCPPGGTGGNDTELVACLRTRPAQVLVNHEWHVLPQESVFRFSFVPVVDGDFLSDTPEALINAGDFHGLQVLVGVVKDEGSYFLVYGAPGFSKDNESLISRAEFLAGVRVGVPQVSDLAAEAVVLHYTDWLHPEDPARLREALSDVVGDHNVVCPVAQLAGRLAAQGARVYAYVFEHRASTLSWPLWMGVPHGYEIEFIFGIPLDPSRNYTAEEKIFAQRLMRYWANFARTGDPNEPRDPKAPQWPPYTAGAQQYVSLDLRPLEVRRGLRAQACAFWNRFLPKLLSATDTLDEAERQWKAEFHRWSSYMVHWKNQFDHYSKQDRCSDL

For the compound `Cc1nn(-c2ccccc2)c(Cl)c1C=NN=C1C(=O)Nc2ccccc21` [SB], the values for the Caspase-3 (in assay [1]; in the assay on caspase-3 in A549 cells) were 144.28 ± 0.22 pg/mL and 134.94 ± 0.18 pg/mL, respectively. The inhibition at 100 µg/mL amounted to 32.64 ± 0.16% in assay [2] (at 100 µg/mL, read-out: Acetylcholinesterase (AChE) Inhib. (%)) and 31.61 ± 0.18% on COX-1 (at 100 µg/mL, read-out: COX-1 Inhib. (%)). In addition, the figures for the IC50 (in assay [2]; against COX-1) were 19.2 µM and 27.1 µM, respectively. The figures for the Bcl-2 in the assay with Bcl-2 in A549 cells and with Bcl-2 in BJ-1 cells were 8.26 ± 0.03 ng/mL and 4.98 ± 0.03 ng/mL, respectively. In “DPPH radical scavenging” (at 100 µg/mL), the “Scavenging activity DPPH Inhib. (%)” value came out at 44.54 ± 0.18%. Also, in “DPPH radical scavenging”, the “Scavenging activity DPPH IC50” value turned out to be 6.24 ± 0.01 µg/mL. For the same compound, the “Scavenging activity NO Inhib. (%)” value in “NO radical scavenging” (at 100 µg/mL) stood at 36.79 ± 0.18%. In addition, in “NO radical scavenging”, the “Scavenging activity NO IC50” value stood at 7.69 ± 0.04 µg/mL.
